Test results reported in US20100167956A1, “DNA CHIP FOR DETECTION OF ESCHERICHIA COLI” (MEDIGENES CO., LTD., priority 2007, published 2010).
≈ marks a conversion by molar mass, not a printed value.

How the values were obtained:
E. coli (ATCC 25922) [1] = experiment: Plate count of E. coli in antibiotic-treated cultures; conditions: 1st-3rd experiment
E. coli (ATCC 25922) [2] = experiment: MIC (minimal inhibitory concentration) test, standard dilution method; assay type: cell-based; conditions: Escherichia coli, ATCC25922; E. coli ATCC 25922, standard dilution method
From the text: For the strain, E. coli (ATCC 25922) was used, and for the antibiotic, Ceftriaxone (CJ, Seoul, Korea), to which E. coli has not developed resistance, was used for the sensitivity test.
First, each strain activated by two subcultures was used to estimate the antibiotic sensitivity by MIC (minimal inhibitory concentration) test. For the MIC test, a standard dilution method (Performance Standards for Antimicrobial Susceptibility Testing; Fifteenth Informational Supplement, Clinical and Laboratory Standard Institute, M100-S15, Vol. 25, No. 1, 2005) was used according to CLIS (The Clinical and Laboratory Standards Institute) guidelines.

MIC (E. coli (ATCC 25922) [2]): 0.12 µg/mL (≈ 0.216 µM)
SMILES: CO/N=C(\C(=O)N[C@@H]1C(=O)N2C(C(=O)O)=C(CSc3nc(=O)c(=O)[nH]n3C)CS[C@H]12)c1csc(N)n1 [Ceftriaxone]
CFU (number of bacteria, plate count) (E. coli (ATCC 25922) [1]; EC-1-04: 1 MIC antibiotic, 4 hr): 0 CFU | CFU (number of bacteria, plate count) (E. coli (ATCC 25922) [1]; EC-1-06: 1 MIC antibiotic, 6 hr): 0 CFU | CFU (number of bacteria, plate count) (E. coli (ATCC 25922) [1]; EC-1-12: 1 MIC antibiotic, 12 hr): 0 CFU | CFU (number of bacteria, plate count) (E. coli (ATCC 25922) [1]; EC-1-24: 1 MIC antibiotic, 24 hr): 0 CFU | CFU (number of bacteria, plate count) (E. coli (ATCC 25922) [1]; EC-2-02: 2 MIC antibiotic, 2 hr): 0 CFU | CFU (number of bacteria, plate count) (E. coli (ATCC 25922) [1]; EC-2-04: 2 MIC antibiotic, 4 hr): 0 CFU | CFU (number of bacteria, plate count) (E. coli (ATCC 25922) [1]; EC-2-06: 2 MIC antibiotic, 6 hr): 0 CFU | CFU (number of bacteria, plate count) (E. coli (ATCC 25922) [1]; EC-2-12: 2 MIC antibiotic, 12 hr): 0 CFU | CFU (number of bacteria, plate count) (E. coli (ATCC 25922) [1]; EC-2-24: 2 MIC antibiotic, 24 hr): 0 CFU
